Where a name gives a salt, the structure may show the parent alone.
Target: AKAP18δ-PLB interaction (UniProt P26678+Q6JP77)
Test: AlphaScreen binding assay of the GST-AKAP18δ : PLB-biotin interaction
Details: compound library screen; Table 1 compounds similar to those of formula (I); read-out: EC50
Description: Stable and optimal assay conditions were determined by cross-titrating GST-AKAP186 and biotinylated PLB using 10 μg/ml glutathione acceptor beads and 10 μg/ml streptavidin donor beads in an AlphaScreen assay. The excitation wavelength was 680 nm, with the emission wavelength being 520-560 nm. Signal intensity in each well was registered and the optimal concentration to use was chosen to be the concentration prior to the peak of the signal.
Concentrations to give a reliable signal were determined to be between 2 and 16 nM for AKAP18δ-GST and 4 and 20 nM PLB-biotin for relevant preparations of protein, for example 4 nM and 20 nM, respectively.
compound library was screened with the above assay.
The compounds of Examples 2-10 were tested for pharmacological activity using the Binding Assay described above. The compounds of Examples 2-10 were dissolved in DMSO to a concentration of 10 mM, diluted in aqueous solution and tested for their ability to disrupt the AKAP18δ-PLB interaction at different concentrations in the AlphaScreen binding assay as described above.
Signal intensity was recorded at each concentration of compound. Maximal signal representing full interaction between AKAP186 and PLB at 0 μM compound was set to 100% and loss of signal (due to compound disruption of the protein-protein interaction) plotted against log [conc compound] and curves fitted in SigmaPlot (see FIGS. 2a-2i).

Sequence of AKAP18δ-PLB interaction (Q6JP77 whole entry): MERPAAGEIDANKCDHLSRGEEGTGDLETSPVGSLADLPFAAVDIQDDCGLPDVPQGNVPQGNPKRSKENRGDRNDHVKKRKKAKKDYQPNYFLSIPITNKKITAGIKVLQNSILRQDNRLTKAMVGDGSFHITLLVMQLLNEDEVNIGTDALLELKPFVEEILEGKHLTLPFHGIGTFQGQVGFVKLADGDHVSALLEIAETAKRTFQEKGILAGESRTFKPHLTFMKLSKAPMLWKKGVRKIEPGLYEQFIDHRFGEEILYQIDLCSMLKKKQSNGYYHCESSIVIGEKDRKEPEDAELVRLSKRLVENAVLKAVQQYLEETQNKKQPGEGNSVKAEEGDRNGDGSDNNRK
Sequence of AKAP18δ-PLB interaction (P26678 whole entry): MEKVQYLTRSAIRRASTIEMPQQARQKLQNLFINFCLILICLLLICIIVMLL

Row | SMILES | EC50
1 | CC(C)(C)c1ccc(CN(Cc2ccc(F)cc2)Cc2nc(C(=O)O)cs2)cc1 | 0.0416 mM
2 | Cc1ccc(CN(Cc2ccc(F)cc2)Cc2nc(C(=O)O)cs2)cc1 | 0.137 mM
3 | O=C(O)c1csc(CN(CCC(c2ccccc2)c2ccccc2)Cc2ccccc2F)n1 | 0.0106 mM
4 | O=C(O)c1csc(CN(CCC(c2ccccc2)c2ccccc2)Cc2ccc(F)cc2)n1 | 0.018 mM
5 | CC(C)(C)c1ccc(CN(CCC(c2ccccc2)c2ccccc2)Cc2nc(C(=O)O)cs2)cc1 | 0.0211 mM
6 | COc1ccc(CN(Cc2ccc(F)cc2)Cc2nc(C(=O)O)cs2)cc1 | 0.0256 mM
7 | Cc1ccc(CN(CCC(c2ccccc2)c2ccccc2)Cc2nc(C(=O)O)cs2)cc1 | 0.0354 mM
8 | O=C(O)c1ccc(CN(Cc2ccccc2)Cc2ccc(C(=O)O)cc2)cc1 | 0.0296 mM
9 | Nc1ccc(CN(Cc2ccccc2)Cc2ccc(N)cc2)cc1 | 0.0038 mM
10 | CCN(CC)c1ccc(CN(Cc2ccccc2)Cc2ccc(N(CC)CC)cc2)cc1 | 0.0029 mM
11 | Nc1ccc(CN(Cc2ccc(N)cc2)Cc2ccc(N)cc2)cc1 | 0.0222 mM
12 | Cc1ccc(NC(=O)Nc2ccc(CN(Cc3ccccc3)Cc3ccc(NC(=O)Nc4ccc(C)cc4)cc3)cc2)cc1 | 0.0025 mM
13 | O=C(O)c1csc(CN(Cc2ccc(F)cc2)Cc2cccc(Cl)c2)n1 | 0.0364 mM
14 | O=C(O)c1csc(CN(Cc2ccc(F)cc2)Cc2ccc(OCc3ccccc3)cc2)n1 | 0.0395 mM
15 | O=C(O)c1csc(CN(Cc2ccc(F)cc2)Cc2cccc(C(F)(F)F)c2)n1 | 0.0605 mM
16 | O=C(O)c1csc(CN(Cc2ccc(F)cc2)Cc2ccc(Cl)cc2)n1 | 0.0943 mM
17 | Cc1ccc(CN(Cc2cccc(C(F)(F)F)c2)Cc2nc(C(=O)O)cs2)cc1 | 0.0983 mM
18 | O=C(O)c1csc(CN(Cc2cccc(C(F)(F)F)c2)Cc2ccccc2F)n1 | 0.216 mM
19 | O=[N+]([O-])c1ccc(CN(Cc2ccccc2)Cc2ccc([N+](=O)[O-])cc2)cc1 | 0.0075 mM
20 | O=C(Nc1ccc(F)cc1)Nc1ccc(CN(Cc2ccccc2)Cc2ccc(NC(=O)Nc3ccc(F)cc3)cc2)cc1 | 0.0093 mM
21 | O=C(Nc1ccccc1)Nc1ccc(CN(Cc2ccccc2)Cc2ccc(NC(=O)Nc3ccccc3)cc2)cc1 | 0.0036 mM
22 | Cc1ccc(NC(=O)Nc2ccc(CN(Cc3ccc(NC(=O)Nc4ccc(C)cc4)cc3)Cc3ccc(NC(=O)Nc4ccc(C)cc4)cc3)cc2)cc1 | 0.0052 mM
23 | CN(C)c1ccc(CN(Cc2ccccc2)Cc2ccc(N(C)C)cc2)cc1 | 0.002 mM

Same assay, conditions: half-maximal disruption of AKAP18δ-PLB signal; compounds of Examples 2-10; read-out: EC50

Row | SMILES | EC50
24 | Cc1ccc(CN2CCc3ccccc3C2)cc1 [Compound 2, N-4-methyl-benzyl-1,2,3,4-tetrahydroisoquinoline] | 0.142 mM
25 | CC(C)(C)c1ccc(CN2CCc3ccccc3C2)cc1 [Compound 3, N-4-t-butyl-benzyl-1,2,3,4-tetrahydroisoquinoline hydrochloride salt] | 0.0553 mM
26 | Brc1ccc(CN2CCc3ccccc3C2)cc1 [Compound 5, N-4-bromo-benzyl-1,2,3,4-tetrahydroisoquinoline hydrochloride salt] | 0.0645 mM
27 | O=[N+]([O-])c1ccc(CN2CCc3ccccc3C2)cc1 [Compound 6, N-4-nitro-benzyl-1,2,3,4-tetrahydroisoquinoline] | 0.0715 mM
28 | c1ccc(CN2Cc3ccccc3C2)cc1 [Compound 7, N-benzyl-isoindoline hydrochloride salt] | 0.207 mM
29 | c1ccc2c(c1)CN(Cc1ccncc1)C2 [Compound 8, N-4-methylpyridyl-isoindoline] | 0.0718 mM

Same assay, conditions: half-maximal disruption of AKAP18δ-PLB signal; compounds of Examples 2-10; value in mM

Row | SMILES | EC50
30 | Cl.c1ccc(CN2CCc3ccccc3C2)cc1 [Compound 4, N-4-benzyl-1,2,3,4-tetrahydroisoquinoline hydrochloride salt] | single-digit

Same assay, conditions: half-maximal disruption of AKAP18δ-PLB signal; compounds of Examples 2-10; value in mM; read-out: EC50

Row | SMILES | EC50
31 | Cl.c1ccc(CN2CCc3ccccc3C2)cc1 [Compound 4, N-4-benzyl-1,2,3,4-tetrahydroisoquinoline hydrochloride salt] | 6.5 mM

From patent US9585880B2, “Cyclic amino compounds for use in the treatment of cardiac disorders” (Universitetet I Oslo, priority 2013, dated 2017)
